Assay: mn = molality of the nth substance listed, in mol/kg
Details: 298.15 K, 101 kPa, Liquid, Pycnometric method

O=[N+]([O-])[O-].O=[N+]([O-])[O-].O=[N+]([O-])[O-].[Fe+3] [ferric nitrate] + O
Details | mass density [kg/m3]
m1 = 0.1102 | 1017.4
m1 = 0.4672 | 1079.1
m1 = 1.183 | 1194.2
m1 = 1.476 | 1235.5
m1 = 1.907 | 1293.8
m1 = 2.442 | 1363.6

O=[N+]([O-])[O-].O=[N+]([O-])[O-].[Mn+2] [manganese nitrate] + O
Details | mass density [kg/m3]
m1 = 0.0287 | 1000.9
m1 = 0.1948 | 1023
m1 = 0.5661 | 1069.9
m1 = 1.373 | 1162.1
m1 = 2.006 | 1224
m1 = 3.484 | 1359

O=[N+]([O-])[O-].O=[N+]([O-])[O-].O=[N+]([O-])[O-].[Al+3] [aluminum trinitrate] + O
Details | mass density [kg/m3]
m1 = 0.5413 | 1081.6
m1 = 0.8667 | 1128.8
m1 = 1.007 | 1148.4
m1 = 1.507 | 1213.3
m1 = 2.012 | 1288.7
m1 = 2.793 | 1355.7
